The values below come from patent US11261189B2, “Substituted 2,4 diamino-quinoline as new medicament for fibrosis, autophagy and cathepsins B (CTSB), L (CTSL) and D (CTSD) related diseases” (Genoscience Pharma, priority 2018, dated 2022).

The test system of assay [1] is cathepsins B and L (CTSB/L). The assay can be described thus: Overall cathepsins B and L (CTSB/L) peptidase activity in lysates of treated HepG2 cells (Z-FR-AMC substrate). It is filed as cell-based. To be noted: for CTSB/L activity versus NT: 6 hours of treatment. How it is done: Lysosomal functions was investigated in a hepatocellular carcinoma (HCC) cell line HepG2 after 6 hours and 24 hours of treatment with compound 2-3 (the hydrochloride salt form of compound 2-2) using functional assays of some lysosomal enzymes activity: two cysteine proteinases: cathepsin B (CTSB) and cathepsin L (CTSL), and one aspartic proteinase: cathepsin D (CTSD). Two sets of three concentrations of compound 2-3 (1 μM, 2 μM, and 4 μM for 6 hours, and 0.5 μM, 1 μM and 2 μM for 24 hours) were tested at least in triplicate and four independent experiments were performed. Salinomycin (7.5 μM for 6 hours and 24 hours) was used as a positive control.
The HepG2 cell line was maintained in DMEM (Dulbecco's Modified Eagle Media) high glucose (Cat #L0103-500, Dutscher) containing 1% penicillin-streptomycin (Cat #P06-07100, Dutscher) and 10% FBS (Fetal Bovine Serum) (Cat #11543407, Life Technologies). Cells were cultured at 37° C. with 5% CO2.
The day before the experiment, 6-well plates (Cat #353046, Dutscher) with 250,000 cells in 2.7 mL of medium per well were prepared.
Compound 2-3 was dissolved with filtrated H2O mQ to make a 10 mM stock solution and serial working solutions (10× solutions) were prepared with the diluent (=culture medium with 0.4% H2O mQ) at 5 μM, 10 μM, 20 μM and 40 μM: the “dilution 1” is made from the 10 mM stock solution in the culture medium and the following serial dilutions were made in the diluent to maintain a constant percentage of H2O.
Salinomycin [CAS 53003-10-4] was used as positive control and was dissolved with methanol to make a 10 mM stock solution and a 10× solution at 75 μM was prepared with the culture medium.
300 μL of compound 2-3 10× solutions (solutions at 10 μM, 20 μM and 40 μM for 6 hours of treatment and solutions at 5 μM, 10 μM and 20 μM for 24 hours of treatment) or 300 μL of diluent (=non-treated (NT) condition) or 300 μL of Salinomycin 10× solution were dispensed in the appropriate wells (4 wells/condition). After cells treatment, 6-well plates were returned to incubator for 6 hours or 24 hours.
After 6 hours or 24 hours of cells treatment, the medium was removed from each well. The cells were carefully rinsed with PBS (phosphate-buffered saline, Cat #L0615-500, Dutscher) and detached with 500 μL per well of a trypsin solution. After 5 min of trypsin (Cat #L0930-100, Dutscher) incubation at 37° C., 800 μL of medium was added per well and transferred to a 1.5 mL tube. Then, 800 μL of PBS was used to rinse each well and the corresponding solution was pooled in each corresponding 1.5 mL tube. […] Total protein concentration was assessed using the Bradford reagent (Cat #B6916-500ML, Sigma-Aldrich) and cellular lysates were stored at −80° C. until catalytic activity measurement. […]

Assay [2] has as its system diethyl nitrosamine (DEN) cirrhotic rat model of liver fibrosis. The assay can be described thus: DEN induced cirrhosis in rats, study 1: Sirius red quantification of liver fibrosis. Format: in vivo. To be noted: 6 weeks after 14 weeks DEN. An excerpt: This animal model allows developing an extensive liver fibrosis, leading to a compensated liver cirrhosis with a multifocal hepatocarcinoma (HCC) after 14 weeks of induction (Schiffer, E. et al. Hepatology 2005 (41), 307-314). The DEN cirrhotic rat animal model was used here as a specific animal model of liver fibrosis.
Forty two Fisher 344 male rat (obtained from Charles River Laboratories France, including spare animals), weighting approximately 280 g at the start of the study, were randomized in 5 groups of 8 (groups 1, 2, 3 and 5) or 6 (group 4) animals and housed with 3 animals per cage, given free access to food and water and allowed to acclimate for at least 5 days prior to test initiation.
The DEN cirrhotic rat model was obtained after 14 weekly intraperitoneal injections of DEN (intra-peritoneal injections (i.p.) of DEN at 50 mg/kg/week). The animals were then treated according to Table 9 during 6 weeks. In this in vivo experiment, the anti-fibrotic activity of compound 2-3 was evaluated in liver fibrosis animal model, alone or in combination with Sorafenib (a multikinase inhibitor of Raf-1, B-Raf, VEGFR-2, VEGFR3, PDGFRβ, Flt3 and c-Kit). After 6 weeks of treatment, all animals were sacrificed using CO2 and rat livers were collected for analysis. The quantification of the liver fibrotic tissue was evaluated by Sirius red staining of rat liver sections.
Group 1 contained 8 animals which were daily dosed (q.d.) by oral gavage (per os, p.o.) with the vehicle during 6 weeks.
Group 2 contained 8 animals which were daily dosed (q.d.) by oral gavage (per os, p.o.) with Sorafenib at 10 mg/kg/day during 6 weeks.
Group 3 contained 8 animals which were daily dosed (q.d.) by oral gavage (per os, p.o.) with compound 2-3 at 15 mg/kg/day during 6 weeks.
Group 4 contained 6 animals which were daily dosed (q.d.) by oral gavage (per os, p.o.) with compound 2-3 at 15 mg/kg/day in combination with Sorafenib at 10 mg/kg/day during 6 weeks.
Group 5 contained 8 animals which were daily dosed (q.d.) by oral gavage (per os, p.o.) with compound 2-3 at 30 mg/kg/day during 6 weeks. […]

Counter-ions that a name gives are not always drawn.

As to `CC(C)(C)NC1CCN(c2cc(NCc3ccc(Cl)cc3)nc3ccccc23)CC1` [2-3, 2-(4-chlorobenzylamino)-4-(4-tert-butylaminopiperidin-1-yl)-quinoline Hydrochloride Salt], the “CTSB/L activity versus NT” value in assay [1] (HepG2, 2 μM) is on record as 78.0%; in assay [1] (HepG2, 4 μM) it was 55.3%. Also, the “inhibition of cathepsins B and L (CTSB/L) compare to the control” value in assay [1] (HepG2, 2 μM, 4 μM for 6 hours and 1 μM, 2 μM for 24 hours, p<0.05) is recorded as “statistically significant”. The “reduction of the level of collagen fibers deposition (Sirius red) compared to the control group” value in assay [2] (group 3: 15 mg/kg/day p.o. q.d., p<0.05) came out at 41.0%; in assay [2] (group 5: 30 mg/kg/day p.o. q.d., p=0.01) it was 45.3%.
